How the values were obtained:
GHB [1] = experiment: Biofilm (sessile) test, freshwater (WHO); type: cell-based, general heterotrophic bacteria; conditions: after 75 ppm ai THPS dosed for 3 hours
Excerpt: Biofilm (Sessile) Tests: Freshwater (WHO)

GHB [2] = experiment: Quantitative suspension test in de inking water, GHB; type: cell-based, general heterotrophic bacteria; conditions: 75 ppm ai THPS, 3 hour contact
Excerpt: (§1) Quantitative Suspension Test in De Inking Water

SRB [3] = experiment: Biofilm test, seawater (SMOW), SRB; type: cell-based, sulphate reducing bacteria; conditions: after 75 ppm ai THPS dosed for 3 hours
Excerpt: (§2) Biofilm Tests: Seawater (SMOW)

[4] = test system: General Heterotrophic Bacteria; experiment: Quantitative suspension test (planktonic bacteria) in WHO water; type: cell-based; conditions: 50 ppm ai THPS
Excerpt: Quantitative Suspension Test (Planktonic Bacteria) in WHO Water

SRB [5] = experiment: Quantitative suspension test in de inking water, SRB; type: cell-based, sulphate reducing bacteria; conditions: 75 ppm ai THPS, 3 hour contact
Excerpt: as §1

GHB [6] = experiment: Biofilm test, seawater (SMOW), GHB; type: cell-based, general heterotrophic bacteria; conditions: after 75 ppm ai THPS dosed for 3 hours
Excerpt: as §2

tetrakis(hydroxymethyl)phosphonium sulphate [Unformulated THPS]
Viable bacteria, GHB (GHB [1]): 1 × 10^5 | Log reduction values, GHB (GHB [2]): 3.8 | Viable bacteria, SRB (SRB [3]): 1 × 10^4 | Log Reduction of General Heterotrophic Bacteria ([4]; 1 hour contact): 1 | Log Reduction of General Heterotrophic Bacteria ([4]; 3 hour contact): 5.8 | Log reduction values, SRB (SRB [5]): 3 | Viable bacteria, GHB (GHB [6]): 1 × 10^2

Source: US10178867B2, “Treating microbe contamination in water with THP salts and polymeric biopenetrants” (priority 2004, dated 2019)
